Measured values: article PMC12926040, “ADP-ribose is a competitive inhibitor of methanol dehydrogenases from Bacillus methanolicus” (The Journal of Biological Chemistry, 2025)

Assays:
BmMDH2 [1] = target: T1, BmMDH2 (Bacillus methanolicus, UniProt I3E949); assay: Effects of NAM, AMP and ADPR (0.3 mM each) on BmMDH2 activity; format: biochemical, Bacillus methanolicus MGA3; details: 3 mM NAD+, 40 mM ethanol
[2] = system: BmMDH2 free of metal ions; assay: EDTA treatment of BmMDH2 and recovery of activity with metal ions; format: biochemical, Bacillus methanolicus MGA3
Protocol: To further characterize the specific activity of BmMDH2 containing different metal ions, the purified BmMDH2 was treated with EDTA to remove the metal ions it coordinated during expression or purification. The protein was incubated with 10 equivalents of EDTA in glycine-NaOH buffer (100 mM, pH 9.5) on the ice for 1 hour. Subsequently, the EDTA was removed from the protein using the HiTrap desalting column (Cytiva, CAT#17-1408-01). […] The BmMDH2 free of metal ions at 10 μM was incubated in glycine-NaOH buffer (100 mM, pH 9.5) containing 1 mM of various metal ions on ice for 1 h, followed by the analysis of the activity. […] Overall, the above results indicated the optimum metal ion for BmMDH2 activity was Mn^2+, which was also supplied in the rest of the research.
Fig. S12 The effect of metal ions on the activity of BmMDH2. a, The effect of metal ions on the activity of BmMDH2. The purified BmMDH2 at 10 μM was incubated with 1 mM of various metal ions on ice for 1 h, the enzyme activities were measured using 50 mM propanol as substrate at 37 °C. The activity of BmMDH2 incubated in the absence of metal ion was taken as 100%. Data are means ± SDs of three measurements. b. The recovery activity of metal ions-free BmMDH2 replenished with various metal ions. The metal ions in BmMDH2 were chelated with EDTA. The activity of BmMDH2 with Mn^2+ replenishment was taken as 100%. Data are means ± SDs of three measurements.

BmMDH2 [3] = target: T1, BmMDH2; assay: Effect of metal ions on the activity of purified BmMDH2; format: biochemical; details: 1 mM metal ion, on ice 1 h; 50 mM propanol, 37 °C
Protocol: As a first step, different metal ions were directly incubated with BmMDH2 to determine their impact on its activity. The purified BmMDH2 was diluted to 10 μM in glycine-NaOH buffer (100 mM, pH 9.5) containing 1 mM of various metal ions. After incubation on ice for 1 h, the enzymatic activities were measured in glycine-NaOH buffer (100 mM, pH 9.5) containing 3 mM NAD^+, 1 μM BmMDH2, 0.1 mM various metal ions and 50 mM propanol at 37 °C.
The purified BmMDH2 at 10 μM was incubated with 1 mM of various metal ions on ice for 1 h, the enzyme activities were measured using 50 mM propanol as substrate at 37 °C. The activity of BmMDH2 incubated in the absence of metal ion was taken as 100%. Data are means ± SDs of three measurements. b. The recovery activity of metal ions-free BmMDH2 replenished with various metal ions. The metal ions in BmMDH2 were chelated with EDTA. The activity of BmMDH2 with Mn^2+ replenishment was taken as 100%. Data are means ± SDs of three measurements.

[4] = Hydrolysis of NAD+ in glycine-NaOH buffer pH 9.5 at 25 °C (HPLC); format: physicochemical
Protocol: NAD^+ (3 mM) was incubated with (black) or without (blue) 10 nM ACT in glycine-NaOH buffer (pH 9.5, 5 mM MgCl2) at 25 °C for 60 min. Unincubated NAD^+ (red) served as a control. Compounds were identified via LC-MS. […] Data are presented as means ± SDs (n = 3). C, degradation of ACT-treated NAD^+ in glycine-NaOH buffer (pH 9.5) at 25 °C. ACT was removed by ultrafiltration before analysis. D, ADPR content in NAD^+ from different suppliers. […] E, schematic of the reactions during ACT incubation with NAD^+.
Fig. S5 The hydrolysis rate of NAD^+ at 25 °C. NAD^+ was dissolved in glycine-NaOH buffer (pH 9.5, 100 mM) at a concentration of 3 mM and incubated at 25 °C. Samples were withdrawn at various time intervals and analyzed by HPLC. The residual NAD^+ was quantified according to the standard curves of NAD^+.

BmMDH2 [5] = target: T1, BmMDH2; assay: BmMDH2 activation by ACT, NADH formation monitored at 340 nm; format: biochemical; details: final NAD+ raised by 2.9 mM after […]; 42 μM/min before; 50 nM ACT
Protocol: Figure 1 ACT-catalyzed conversion of NAD^+ into a compound that activates BmMDH2.A, effect of ACT concentration on BmMDH2 activation. The formation of NADH was monitored at 340 nm, with 100 nM BmMDH2 in glycine-NaOH buffer (pH 9.5) containing 0 to 125 nM ACT, 3 mM NAD^+, 20 mM ethanol, 5 mM MgCl2 and 0.5 mM MnCl2. Data for the initial 10 min are highlighted in the right panel. Data were from a single experiment. B, effects of the following treatments on BmMDH2 activation: preincubated ACT & NAD^+ (red), preincubated ACT & BmMDH2 (blue), ultrafiltrate of preincubated ACT & NAD^+ (green), and ultrafiltrate of ACT (purple) or NAD^+ (cyan) solutions. Preincubations were performed in glycine-NaOH buffer (pH 9.5) with 5 mM MgCl2 and 0.5 mM MnCl2 at 25 °C for 30 min. Ethanol, BmMDH2, or NAD^+ was subsequently added to achieve final concentrations of 10 nM ACT, 20 mM ethanol, 3 mM NAD^+, and 200 nM BmMDH2. For ultrafiltration, preincubated samples were filtered (10 kDa cutoff, Millipore), and the flowthrough was used for activation assays. Data represent means ± SD (n = 3). C, effect of NAD^+ concentration on BmMDH2 activation. Activity was measured using 100 nM BmMDH2 in glycine-NaOH buffer (pH 9.5) with 50 nM ACT, 0 to 20 mM NAD^+, 5 mM MgCl2, and 0.5 mM MnCl2. Data were from a single experiment. D, time-course of BmMDH2 activation. Reaction were performed in 200 μl glycine-NaOH buffer (100 mM, pH 9.5) with 5 mM MgCl2, 0.5 mM MnCl2, 0.25 mM NAD^+, 0.1 μM BmMDH2, 20 mM ethanol, and 50 nM ACT. Fresh NAD^+ (4 μl, 150 mM) was added twice during the reaction. Data were from a single experiment. E, catalytic rates of BmMDH2 were calculated from the slopes of the data in panel D. Additional replicates of the experiments shown in panels A, C, and D are provided in Fig. S4. […]
The catalytic processes of MDHs were monitored by measuring NADH absorbance at 340 nm using a Tecan SPARK UV-Vis plate reader (Tecan Austria GmbH) at 25 °C. […]

[6] = system: NC(=O)c1ccc[n+]([C@@H]2O[C@H](COP(=O)(O)OP(=O)(O)OC[C@H]3O[C@@H](n4cnc5c(N)ncnc54)[C@H](O)[C@@H]3O)[C@@H](O)[C@H]2O)c1; assay: purified protein, by the assay type; details: other: in the presence of 10 nM ACT, 40 mM ethanol, pH 8.0, 25.0 °C
[7] = target: NAD-dependent methanol dehydrogenase 2 from Bacillus methanolicus MGA3 (BmMDH2) (Bacillus methanolicus MGA3); assay: crystal structure; BmMDH2 apo (2.8 Å), with ADPR (2.6 Å) and with NAD+ (2.6 Å); sitting-drop vapor diffusion at 18 °C, 30 mg/ml protein, Bis-Tris propane pH 6.0-7.0, PEG 3350
[8] = target: activator protein ACT from Bacillus methanolicus MGA3 (Nudix hydrolase, ADPRase) (Bacillus methanolicus MGA3) (UniProt Q8KP10); assay: crystal structure; apo-ACT in two conformations of loop 132-146 (2.0 and 2.4 Å); 90 mg/ml protein in 20 mM Tris-HCl pH 7.5, 150 mM NaCl; reservoir MES pH 5.2 with PEG 400, or MMT pH 5.0 with PEG 1500

T1 sequence (I3E949 entry or part of it): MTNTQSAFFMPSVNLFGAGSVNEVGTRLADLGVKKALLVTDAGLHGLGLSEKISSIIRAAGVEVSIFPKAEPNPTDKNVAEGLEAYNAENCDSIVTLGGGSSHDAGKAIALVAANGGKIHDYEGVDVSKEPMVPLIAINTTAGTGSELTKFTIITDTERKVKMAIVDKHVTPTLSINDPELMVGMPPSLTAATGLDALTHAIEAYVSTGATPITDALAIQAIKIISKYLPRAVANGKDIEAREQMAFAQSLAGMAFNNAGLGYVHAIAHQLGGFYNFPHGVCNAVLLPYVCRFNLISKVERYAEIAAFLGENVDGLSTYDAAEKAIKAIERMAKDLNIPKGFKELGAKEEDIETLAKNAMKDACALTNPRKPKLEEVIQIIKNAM

Nc1ncnc2c1ncn2[C@@H]1O[C@H](COP(=O)(O)O)[C@@H](O)[C@H]1O [AMP]
effect on BmMDH2 activity (in words) (BmMDH2 [1]): Neither AMP nor NAM significantly influenced activation

[Ca+2] [Ca^2+]
recovery of activity of metal-free BmMDH2 ([2]; 1 mM metal ion, on ice 1 h): didn’t restore the activity
effect of metal ion on BmMDH2 activity (BmMDH2 [3]): slightly decreased

[Co+2] [Co^2+]
effect of metal ion on BmMDH2 activity (BmMDH2 [3]): significantly enhanced

[Cu+2] [Cu^2+]
recovery of activity of metal-free BmMDH2 ([2]; 1 mM metal ion, on ice 1 h): didn’t restore the activity
effect of metal ion on BmMDH2 activity (BmMDH2 [3]): significantly inhibited

O=C(O)CN(CCN(CC(=O)O)CC(=O)O)CC(=O)O [EDTA, reference compound]
BmMDH2 activity after EDTA treatment ([2]; 10 equivalents of EDTA, pH 9.5, on ice 1 hour): completely lost

[Fe+2] [Fe^2+]
effect of metal ion on BmMDH2 activity (BmMDH2 [3]): negligible effect

[Mg+2] [Mg^2+]
recovery of activity of metal-free BmMDH2 ([2]; 1 mM metal ion, on ice 1 h): didn’t restore the activity
effect of metal ion on BmMDH2 activity (BmMDH2 [3]): slightly decreased

[Mn+2] [Mn^2+]
activity of metal-free BmMDH2 replenished with metal ion ([2]; 1 mM metal ion, on ice 1 h): 1.04 ± 0.02 U/mg
effect of metal ion on BmMDH2 activity (BmMDH2 [3]): significantly enhanced

NC(=O)c1ccc[n+]([C@@H]2O[C@H](COP(=O)(O)OP(=O)(O)OC[C@H]3O[C@@H](n4cnc5c(N)ncnc54)[C@H](O)[C@@H]3O)[C@@H](O)[C@H]2O)c1 [NAD^+]
half-life at 3 mM ([4]; glycine-NaOH buffer, glycine-NaOH pH 9.5, 25 °C, read-out: t1/2 of NAD+ hydrolysis (converted)): 64 h
rate constant for NAD+ hydrolysis ([4]; glycine-NaOH pH 9.5, 25 °C): 0.011 h⁻¹
increase of ADPR and NAM on incubation of NAD+ ([4]; glycine-NaOH pH 9.5, 60 min): about 40%
catalytic rate of activated BmMDH2 after additional NAD+ dose (BmMDH2 [5]): 4.8 µM/min

NC(=O)c1cccnc1 [NAM, nicotinamide]
effect on BmMDH2 activity (in words) (BmMDH2 [1]): Neither AMP nor NAM significantly influenced activation

[Ni+2] [Ni^2+]
effect of metal ion on BmMDH2 activity (BmMDH2 [3]): slightly decreased

[Zn+2] [Zn^2+]
recovery of activity of metal-free BmMDH2 ([2]; 1 mM metal ion, on ice 1 h): didn’t restore the activity
effect of metal ion on BmMDH2 activity (BmMDH2 [3]): significantly inhibited

BmMDH2S101G (Bacillus methanolicus MGA3; S101G)
Km [6]: 6.2 ± 0.8 mM

NAD-dependent methanol dehydrogenase 2 from Bacillus methanolicus MGA3 (BmMDH2) (enzyme)
stoichiometry N [7]: 10

activator protein ACT from Bacillus methanolicus MGA3 (Nudix hydrolase, ADPRase) (from UniProt Q8KP10 1-183) (enzyme)
stoichiometry N [8]: 2
